# pIC50: −log10 of the molar value.
# Tests used:
# Format in all cases: cell-based
# [1] = tested on: human non-small cell lung cancer cells, human small cell lung cancer cells, lung adenocarcinoma cells, and breast cancer cells; test: Cancer cell growth, cells of cancer type other than hematological cancer as a panel; conditions: lung and breast cancer cells of table 3
# Text: In the examples, we used acute myelocytic leukemia (AML) OCI-AML-3, acute promyelocytic leukemia cell line NB-4, MDS-RAEB (myelodysplastic syndrome-excess blasts type) cell line SKM-1, human leukemia cell Nomo-1, acute myeloid leukemia cell line MOLM14, acute myeloid leukemia cell line MOLM13, acute myeloid leukemia cell line MV4-11, acute myeloid leukemia cell line HL-60, acute myeloid leukemia cell line OCI-AML-2, histiocytic lymphoma U-937, acute B cell leukemia cell line MEC-1, acute B cell leukemia cell line MEC-2, acute megakaryoblastic leukemia CMK, hamster lung cell CHL, hamster ovary cell CHO, human non-small cell lung cancer cell H1975, human non-small cell lung cancer cell H358, human small cell lung cancer cell H209, human lung adenocarcinoma cell H1395, human non-small cell lung cancer cell PC-9, human lung cancer cell H3122, human non-small cell lung cancer cell H2122, human non-small cell lung cancer cell H1915, human lung adenocarcinoma cell H1355, human non-small cell lung cancer cell HCC827, human breast cancer cell MDA-MB-231, human breast cancer cell MDA-MB-468, human breast cancer cell MCF-7, human breast cancer cell T47D, human breast cancer cell SK-Br-3, the above cells were purchased from ATCC. […]
# [2] = tested on: MDS-RAEB (myelodysplastic syndrome-excess blasts type) cell line SKM-1; test: Cancer cell growth, Cell Titer-Glo cell viability assay, 72 hours; conditions: Homo sapiens; SKM-1, 72 hours
# Outline: (§1)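 Viable cell number was determined by quantifying cellular ATP with a CellTiter-Glo luminescence kit. GI50 and IC50 values were calculated from these ATP-based viability readings.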
# [3] = tested on: human breast cancer cell MCF-7; test: as above; conditions: MCF7, MCF-7, 72 hours
# Outline: as §1
# hamster ovary cell CHO = test: as above
# Outline: as §1
# hamster lung cell CHL = test: as above
# Outline: as §1
# [4] = tested on: acute myelocytic leukemia (AML) OCI-AML-3; test: as above; conditions: Homo sapiens, OCI-AML-3; OCI-AML3, 72 hours
# Outline: as §1
# [5] = tested on: acute promyelocytic leukemia cell line NB-4; test: as above; conditions: NB4, 72 hours
# Outline: as §1
# [6] = tested on: human non-small cell lung cancer cell H358; test: as above; conditions: NCI-H358, H358, 72 hours
# Outline: as §1
# [7] = tested on: human non-small cell lung cancer cell HCC827; test: as above; conditions: HCC827, 72 hours
# Outline: as §1
# [8] = tested on: human non-small cell lung cancer cell H1975; test: as above; conditions: NCI-H1975, H1975, 72 hours
# Outline: as §1
# [9] = tested on: human lung adenocarcinoma cell H1395; test: as above; conditions: NCI-H1395, H1395, 72 hours
# Outline: as §1
# [10] = tested on: acute myeloid leukemia cell line MV4-11; test: as above; conditions: Homo sapiens; MV4-11, 72 hours
# Outline: as §1
# [11] = tested on: human breast cancer cell MDA-MB-468; test: as above; conditions: MDA-MB-468, 72 hours
# Outline: as §1
# [12] = tested on: human lung adenocarcinoma cell H1355; test: as above; conditions: NCI-H1355, H1355, 72 hours
# Outline: as §1
# [13] = tested on: acute myeloid leukemia cell line HL-60; test: as above; conditions: Homo sapiens; HL-60, 72 hours
# Outline: as §1
# [14] = tested on: acute myeloid leukemia cell line OCI-AML-2; test: as above; conditions: Homo sapiens; OCI-AML2, 72 hours
# Outline: as §1
# [15] = tested on: histiocytic lymphoma U-937; test: as above; conditions: Homo sapiens; U-937, 72 hours
# Outline: as §1
# [16] = tested on: human breast cancer cell SK-Br-3; test: as above; conditions: SK-Br-3, 72 hours
# Outline: as §1
# [17] = tested on: human non-small cell lung cancer cell H2122; test: as above; conditions: NCI-H2122, H2122, 72 hours
# Outline: as §1
# [18] = tested on: human small cell lung cancer cell H209; test: as above; conditions: NCI-H209, H209, 72 hours
# Outline: as §1
# [19] = tested on: human breast cancer cell T47D; test: as above
# Outline: as §1
# [20] = tested on: acute myeloid leukemia cell line MOLM14; test: as above; conditions: Homo sapiens; MOLM-14, 72 hours
# Outline: as §1
# [21] = tested on: acute myeloid leukemia cell line MOLM13; test: as above; conditions: Homo sapiens; MOLM-13, 72 hours
# Outline: as §1
# [22] = tested on: human breast cancer cell MDA-MB-231; test: as above; conditions: MDA-MB-231, 72 hours
# Outline: as §1
# [23] = tested on: acute B cell leukemia cell line MEC-2; test: as above; conditions: MEC2; MEC-2, 72 hours
# Outline: as §1
# [24] = tested on: human lung cancer cell H3122; test: as above; conditions: NCI-H3122, H3122, 72 hours
# Outline: as §1
# [25] = tested on: phosphorylation of RNAPII, MCL-1, and c-MYC in HL-60; test: Effect on signaling pathway downstream of CDK9; conditions: HL-60, 0.03-3 μM, 2 hours
# Description: (§2) Against four cells, acute myelocytic leukemia cell line (AML) OCI-AML-3, acute promyelocytic leukemia cell line NB-4, acute myelocytic leukemia cell line (AML) HL-60 and acute myelocytic leukemia cell line (AML) MV4-11 (all purchased from ATCC), by measuring the biochemical endpoints and functional endpoints of multiple cells, the effect of compound 1 was evaluated on CDK9 in cells and other protein kinases related to its signaling pathway, such as RNAPII, XIAP, MCL-1, c-MYC, BCL-2 and so on. […] The effect of Compound 1 on the phosphorylation of CDK9, RNAPII, XIAP, MCL-1, c-MYC, BCL-2 in these cell lines was determined (FIG. 1a-d).
# [26] = tested on: phosphorylation of RNAPII, MCL-1, and c-MYC in MV4-11; test: Effect on signaling pathway downstream of CDK9; conditions: MV4-11, 0.03-3 μM, 2 hours
# Description: as §2
smiles,measurement,setting,value
"COC[C@@H](C)N[C@H]1CC[C@H](Nc2cc(-c3csc(NCC4(C#N)CCOCC4)n3)c(Cl)cn2)CC1 [Compound 1, 4-(((4-(5-chloro-2-(((1R,4r)-4-(((R)-1-methoxypropyl-2-yl)amino)cyclohexyl)amino)pyridin-4-yl)thiazol-2-yl)amino)methyl)tetrahydro-2H-pyran-4-carbonitrile]",inhibitory effects on cancer cells tested (in words),[1],significant inhibitory effects
same,GI50,[2],33 nM
same,pIC50,[3],8.22
same,inhibitory effect on normal cell CHO (in words),hamster ovary cell CHO; CHO cells,no inhibitory effect
same,GI50,"hamster ovary cell CHO; CHO, 72 hours",1600 nM
same,inhibitory effect on normal cell CHL (in words),hamster lung cell CHL; CHL cells,no inhibitory effect
same,GI50,"hamster lung cell CHL; CHL, 72 hours",1100 nM
same,GI50,[4],33 nM
same,GI50,[5],35 nM
same,pIC50,[6],7.37
same,pIC50,[7],7.22
same,pIC50,[8],7.38
same,pIC50,[9],6.92
same,GI50,[10],14 nM
same,pIC50,[11],7.74
same,pIC50,[12],7.00
same,GI50,[13],32 nM
same,GI50,[14],33 nM
same,GI50,[15],17 nM
same,pIC50,[16],7.40
same,pIC50,[17],7.31
same,pIC50,[18],7.07
same,pIC50,[19],7.26
same,GI50,[20],25 nM
same,GI50,[21],25 nM
same,pIC50,[22],7.13
same,GI50,[23],25 nM
same,pIC50,[24],7.96
same,"effect on the phosphorylation of RNAPII, MCL-1, and c-MYC directly downstream of CDK9 protein",[25],significant inhibitory effect
same,"effect on the phosphorylation of RNAPII, MCL-1, and c-MYC directly downstream of CDK9 protein",[26],significant inhibitory effect
